Data set [1] in a line: Pharmacokinetic study, single intravenous and oral administration in rats. The class given is in vivo. Conditions: rat, plasma; for AUC(0-t): read-out: Exposure of AUC0-last. As for the experimental part:
(§1) The purpose of this experiment was to investigate the pharmacokinetics (PK) of the compounds in different species after single intravenous and single oral administration of the test compounds.
(§2) After intravenous or oral administration, blood samples were collected from the animals, and the actual time of blood collection was recorded. After the blood samples were collected, the samples were immediately transferred to the labelled centrifuge tube containing K2-EDTA, and then centrifuged to obtain plasma. Plasma was transferred to pre-cooled centrifuge tubes, quick-frozen in dry ice and stored in an ultra-low temperature refrigerator at −70±10° C. until LC-MS/MS analysis was performed.
(§3) The plasma drug concentration data of the compounds were processed using pharmacokinetic software with a non-compartmental model. The peak concentration (Cmax) and time to peak (Tmax), as well as the quantifiable end time were obtained directly from the plasma concentration-time curve. The following pharmacokinetic parameters were calculated using the log-linear trapezoidal method: half-life (T1/2), apparent volume of distribution (Vdss), and clearance (Cl), area under the time-plasma concentration curve from point 0 to the end time point (AUC0-last), and initial concentration (C0).

Data set [2] in a line: Pharmacokinetic study, single intravenous and oral administration in mice. Conditions: mouse, plasma. The class given is in vivo. As for the experimental part: as §1, §2, §3
The target in data set [3] is Ba/F3 EGFR-V769_D770insASV (Homo sapiens, UniProt P00533, DUP767-769, cells depend on it). In words: Anti-proliferation against Ba/F3 exon 20 insertion mutant cells (ASV). Conditions: CTG, 72 hours, read-out: Mutant cells IC50 (anti-proliferation). In kind it is cell-based, mouse. An excerpt:
RPMI1640 medium was purchased from Hyclone, FBS fetal bovine serum was purchased from GBICO, and trypsin-EDTA were both purchased from Giboco. DPBS was purchased from Corning, penicillin/streptomycin solution was purchased from Hyclone, and Cell-Titer Glo reagent was purchased from Promega (Cat. No. G7572). Ba/F3 EGFR-D770_N771insSVD, Ba/F3 EGFR-H773_V774insNPH, Ba/F3 EGFR-V769_D770insASV, BaF3 ERBB2 A775_G776 ins YVMA, the cell lines were constructed by Beijing Kang Yuan Bochuang Biotechnology Co., Ltd. Plate reading instrument: Envision (PerkinElmer).
Cells in logarithmic growth phase were harvested and cell counts were performed using a […]. Cell viability was detected by the Taipan Blue rejection assay. The cell concentration was adjusted; the cell suspension was added to a 96-well plate separately. Cells in 96-well plates were incubated overnight at 37° C., 5% CO2, and 95% humidity. […] The cell plate was placed at room temperature to stabilize the cold light signal, and the cold light values were read. The data were analyzed using GraphPad Prism 7.0 software, and a nonlinear S-curve regression was used to fit the data to derive the dose-effect curve from which the IC50 values were calculated. […]

Data set [4] concerns the target EGFR L858R/T790M double mutant enzyme (Homo sapiens, UniProt P00533, L858R/T790M). Description: Kinase assay (HTRF KinEASE TK), EGFR L858R/T790M. The class given is biochemical. From the text: To detect the inhibitory effect of compounds on EGFR WT, EGFR (D770_N771insNPG), ERBB2 (V777_G778ins>CG), EGFR T790M/L858R enzyme activities
EGFR WT (Invitrogen, Cat. No. PR7295B), EGFR [L858R] (Invitrogen, Cat. No. PR7447A), EGFR [d746-750] (Invitrogen, Cat. No. PV6179), ATP (Sigma, Cat. No. A7699-1G), DMSO (Sigma, Cat. No. D2650), DTT (Sigma, Cat. No. 43815), 384-well plate, compound dilution plate (Greiner, Cat. No. 781280), 384-well plate, test plate (Perkin Elmer, Cat. No. 6007299), HTRF KinEASE TK Kit (Cisbio, Cat. No. 62TK0PEB), magnesium chloride (Sigma, Cat. No. M1028), Orthovanadate (Sigma, Cat. No. 56508), BSA (Sigma, Cat. No. A7030), HEPES (Life technology, Cat. No. 11344-041).
The final test concentrations of the test compounds ranged from 10 μM to 0.17 nM in 3-fold gradient dilutions at 11 concentrations.
The preparation of the buffer, 50 mM HEPES (pH 7.5), 0.01% BSA, 5 mM MgCl2, and 0.1 mM Orthovanadate were contained in the buffer. After the preparation of the buffer, the enzyme and substrate were mixed with pre-diluted prepared compounds of different concentrations, and the mixture was placed at room temperature for 15 minutes. […] After the reaction was completed, the antibody was added to the assay, incubated at room temperature for 60 minutes and then detected by Envision (plate reading instrument), and data were collected. […]
Background: TR-FRET usually uses a lanthanide donor and a delayed reading to cut background.

Setting [5] is: intravenous injection 2 mg/kg, read-out: Exposure of AUC.
[6] abbreviates: intravenous injection 2 mg/kg, read-out: Vdss.

pIC50: −log10 of the molar value.

Sequence of EGFR L858R/T790M double mutant enzyme (P00533 25-1210 T790M/L858R): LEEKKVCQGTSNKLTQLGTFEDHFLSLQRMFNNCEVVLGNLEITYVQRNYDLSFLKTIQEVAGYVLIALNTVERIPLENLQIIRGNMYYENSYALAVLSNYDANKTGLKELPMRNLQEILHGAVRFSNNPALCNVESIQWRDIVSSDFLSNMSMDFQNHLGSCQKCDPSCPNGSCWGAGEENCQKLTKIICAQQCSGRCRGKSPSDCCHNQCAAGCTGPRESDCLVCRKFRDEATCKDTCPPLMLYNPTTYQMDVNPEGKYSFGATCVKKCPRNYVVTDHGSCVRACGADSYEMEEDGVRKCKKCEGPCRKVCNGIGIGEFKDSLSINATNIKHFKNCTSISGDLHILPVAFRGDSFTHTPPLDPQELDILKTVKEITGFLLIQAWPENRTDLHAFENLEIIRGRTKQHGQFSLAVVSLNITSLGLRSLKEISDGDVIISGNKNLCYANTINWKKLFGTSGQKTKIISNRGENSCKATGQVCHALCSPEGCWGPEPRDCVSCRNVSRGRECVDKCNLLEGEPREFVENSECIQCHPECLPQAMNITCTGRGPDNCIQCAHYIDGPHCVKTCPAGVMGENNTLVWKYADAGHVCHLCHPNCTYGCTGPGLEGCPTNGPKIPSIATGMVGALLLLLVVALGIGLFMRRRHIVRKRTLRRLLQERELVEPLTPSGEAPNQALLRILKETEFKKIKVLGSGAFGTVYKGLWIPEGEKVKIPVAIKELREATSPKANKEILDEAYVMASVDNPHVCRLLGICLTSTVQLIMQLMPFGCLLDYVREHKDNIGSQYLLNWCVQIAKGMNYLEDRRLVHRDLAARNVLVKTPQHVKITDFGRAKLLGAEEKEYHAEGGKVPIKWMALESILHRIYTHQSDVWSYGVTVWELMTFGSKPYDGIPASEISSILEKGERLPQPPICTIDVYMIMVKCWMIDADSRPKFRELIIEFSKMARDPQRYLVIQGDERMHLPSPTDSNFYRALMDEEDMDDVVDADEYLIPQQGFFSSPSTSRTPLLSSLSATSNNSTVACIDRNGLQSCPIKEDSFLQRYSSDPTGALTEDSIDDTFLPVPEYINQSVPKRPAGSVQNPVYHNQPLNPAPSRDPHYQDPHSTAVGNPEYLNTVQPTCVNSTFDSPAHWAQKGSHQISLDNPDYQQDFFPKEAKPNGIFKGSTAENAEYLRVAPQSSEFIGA
Sequence of Ba/F3 EGFR-V769_D770insASV (P00533 with tags, fused parts or gaps DUP767-769): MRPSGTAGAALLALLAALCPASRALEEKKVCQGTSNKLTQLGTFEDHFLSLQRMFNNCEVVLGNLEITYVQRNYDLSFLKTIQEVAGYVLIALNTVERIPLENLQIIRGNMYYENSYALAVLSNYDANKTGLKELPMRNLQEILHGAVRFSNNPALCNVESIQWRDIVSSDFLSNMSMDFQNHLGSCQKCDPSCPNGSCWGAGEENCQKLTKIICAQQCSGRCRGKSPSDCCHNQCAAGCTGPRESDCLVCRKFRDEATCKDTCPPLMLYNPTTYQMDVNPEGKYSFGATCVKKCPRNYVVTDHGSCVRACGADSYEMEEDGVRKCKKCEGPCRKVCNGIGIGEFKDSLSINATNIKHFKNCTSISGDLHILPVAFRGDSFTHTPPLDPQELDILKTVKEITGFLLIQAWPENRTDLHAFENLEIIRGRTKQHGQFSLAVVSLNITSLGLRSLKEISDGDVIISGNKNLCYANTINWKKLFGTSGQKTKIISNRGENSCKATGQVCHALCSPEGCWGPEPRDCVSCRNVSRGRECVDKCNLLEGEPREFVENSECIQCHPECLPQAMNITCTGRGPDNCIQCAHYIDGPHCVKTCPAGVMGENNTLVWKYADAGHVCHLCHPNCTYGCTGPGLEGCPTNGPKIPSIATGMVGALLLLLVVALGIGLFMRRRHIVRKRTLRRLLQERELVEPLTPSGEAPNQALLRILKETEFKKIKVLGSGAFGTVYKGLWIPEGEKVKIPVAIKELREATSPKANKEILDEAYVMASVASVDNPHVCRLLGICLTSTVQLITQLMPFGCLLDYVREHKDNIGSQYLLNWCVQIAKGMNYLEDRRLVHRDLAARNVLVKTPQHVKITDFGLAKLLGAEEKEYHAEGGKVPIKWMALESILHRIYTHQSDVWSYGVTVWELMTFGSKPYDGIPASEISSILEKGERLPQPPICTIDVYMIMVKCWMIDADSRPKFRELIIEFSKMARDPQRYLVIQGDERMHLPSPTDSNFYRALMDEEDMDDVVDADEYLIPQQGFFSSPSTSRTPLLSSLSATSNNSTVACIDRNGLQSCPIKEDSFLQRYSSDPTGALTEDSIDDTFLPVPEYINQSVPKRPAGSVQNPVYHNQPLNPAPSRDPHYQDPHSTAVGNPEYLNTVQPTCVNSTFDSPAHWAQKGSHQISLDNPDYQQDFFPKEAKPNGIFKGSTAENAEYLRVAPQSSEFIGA

Usually half-life stands for the time needed for the level to fall by half in the phase considered. Lower therefore signals rapid decline. A word on the AUC: it is concentration integrated over time. One may read the bioavailability as dose-corrected exposure relative to a reference, in per cent. A high value points to much systemic uptake. A word on the Cmax: it is the peak of the concentration-time curve. The Tmax is the time from dosing to the highest level. As a reminder, the pIC50 is −log10 of the IC50, conventionally taken in molar units. Lower therefore signals a large IC50. On to `C=CC(=O)Nc1cc(Nc2ncc(C(=O)OC(C)C)c(-c3cn(OC)c4ccccc34)n2)c(OC)cc1N(C)CCN(C)C.CS(=O)(=O)O` [Compound 1], for which the clearance was determined as 90.5 mL/min/kg in data set [1] (intravenous injection 2 mg/kg) and 57.7 mL/min/kg in data set [2] (intravenous injection 2 mg/kg). The half-life in data set [1] (intravenous injection 2 mg/kg) was 2.62 h; in data set [2] (intravenous injection 2 mg/kg), 1.76 h. Also, the AUC in data set [1] (setting [5]) was 0.548 µM·h; in data set [2] (setting [5]), 0.884 µM·h. Also, the Vd is 18 L/kg in data set [1] (setting [6]) and 6.95 L/kg in data set [2] (setting [6]). The bioavailability in data set [1] (oral 10 mg/kg) was determined as 21.6%; in data set [1] (oral 20 mg/kg) it was 57.1%; in data set [1] (oral 50 mg/kg), 68.6%; in data set [1] (oral 200 mg/kg), 34.5%; in data set [2] (oral 10 mg/kg) it was 22.1%. The AUC(0-t) worked out at 0.593 µM·h in data set [1] (oral 10 mg/kg); 3.13 µM·h in data set [1] (oral 20 mg/kg); 9.39 µM·h in data set [1] (oral 50 mg/kg); 18.9 µM·h in data set [1] (oral 200 mg/kg); 1.42 µM·h in data set [2] (oral 10 mg/kg, read-out: Exposure of AUC0-last). The compound also registered a Cmax in data set [2] (oral 10 mg/kg) of 300 nM. In data set [2] (oral 10 mg/kg), the Tmax amounted to 2 h. Also, in data set [3], the GI50 is 7 nM. Besides, the pIC50 in data set [4] is 8.43.

The values above are taken from US11530196B2, “Pyrimidine compound acting on EGFR and ERBB2” (CHINA RESOURCES PHARMACEUTICAL HOLDINGS COMPANY LIMITED, priority 2019, dated 2022).
